Experimental data: US20220389061A1, “IMMUNOMODULATORS” (priority 2019, published 2022)
Starred links: 1 amine or outer side, 2 acyl side, 3 side chain; linkers in the order of their positions; H or OH if unused. Positions of bridges follow the written chain, without caps; N, C: chain ends. Non-standard residues stand in square brackets, D forms with d. Residues, ends and D or L forms follow the SMILES beside them. Groups on a side chain read outwards from the residue. *: point of attachment. Trp(1-CH2CO2Me) = COC(=O)Cn1cc(C[C@H](N)C(=O)O)c2ccccc21; Trp(1-CH2COOH) = N[C@@H](Cc1cn(CC(=O)O)c2ccccc12)C(=O)O; X57 = O=C([C@H](CN/C(=N/c1ccccc1)c1ccccc1)N[*:1])[*:2]; X13 = O=[N+]([O-])c1ccc(NC(=S)*)cc1; X67 = S=C(Nc1c(Cl)c(Cl)cc(Cl)c1Cl)*; Pyrazinecarbonyl = O=C(c1cnccn1)*; X49 = N#Cc1ccccc1NC(=N)c1ccccc1N*; Hyp = O=C(O)[C@@H]1C[C@@H](O)CN1; X29 = c1ccc(Oc2ccc(N*)cc2)cc1; X42 = S=C(Nc1ccc2nccnc2c1Br)*; X55 = COc1cc(NC(=S)*)cc(OC)c1; NMeNle = CCCC[C@H](NC)C(=O)O; X20 = O=C(Oc1ccc2ccccc2c1)*; X2 = c1ccc(-c2ccccc2N*)cc1; X59 = S=C(Nc1ccc2nsnc2c1)*; NMeA = CN[C@@H](C)C(=O)O; Dab = NCC[C@H](N)C(=O)O; Dap = NC[C@H](N)C(=O)O; X15 = Cc1ccc(Cl)cc1N*; X26 = S=C(Nc1ccccc1)*; CO = O=C([*:1])[*:2]

molecular target: T1, PD-1/PD-L1 (Homo sapiens, UniProt Q9NZQ7); experiment: PD-1/PD-L1 Homogenous Time-Resolved Fluorescence (HTRF) binding assay; settings: not given
T1 construct: TVMV protease site linker (C); made in house; host or cells: HEK293T cells
In short: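 Compounds preincubated 15 min with PD-L1-His (10 nM final), then PD-1-Ig (20 nM final) added for 15 min in dPBS with 0.1% BSA, 0.05% Tween-20. Detection by Eu-cryptate anti-Ig (1 nM) and APC anti-His (20 nM) HTRF.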

T1 sequence (Q9NZQ7 18-239): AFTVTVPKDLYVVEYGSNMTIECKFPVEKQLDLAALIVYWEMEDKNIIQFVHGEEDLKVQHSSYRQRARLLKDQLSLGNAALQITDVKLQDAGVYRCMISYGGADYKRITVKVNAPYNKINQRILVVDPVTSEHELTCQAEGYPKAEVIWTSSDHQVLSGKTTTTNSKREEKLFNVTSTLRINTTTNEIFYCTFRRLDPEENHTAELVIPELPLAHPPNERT

Question: `CCCC[C@H]1C(=O)N(C)[C@@H](CCCC)C(=O)N[C@@H](CC(C)C)C(=O)N[C@H](C(=O)NCC(N)=O)CSCC(=O)N[C@@H](Cc2ccc(O)cc2)C(=O)N(C)[C@@H](C)C(=O)N[C@@H](CC(N)=O)C(=O)N2CCC[C@H]2C(=O)N[C@@H](CNC(=O)Nc2ccccc2-c2ccccc2)C(=O)N[C@@H](CC(C)C)C(=O)N2C[C@H](O)C[C@H]2C(=O)N[C@@H](Cc2c[nH]c3ccccc23)C(=O)N[C@@H](CCN)C(=O)N[C@@H](Cc2cn(CC(=O)O)c3ccccc23)C(=O)N1C` [Example 1062] ({CH2CO}-Y[NMeA]NP[Dap]([CO-X2])L[Hyp]W[Dab][Trp(1-CH2COOH)][NMeNle][NMeNle]LCG-NH2; thioether N-14) was tested. Which IC50 did it give?
Answer: Its IC50 is 3.4 nM.

Question: With `CCCC[C@H]1C(=O)N(C)[C@@H](CCCC)C(=O)N[C@@H](CC(C)C)C(=O)N[C@H](C(=O)NCC(N)=O)CSCC(=O)N[C@@H](Cc2ccc(O)cc2)C(=O)N(C)[C@@H](C)C(=O)N[C@@H](CC(N)=O)C(=O)N2CCC[C@H]2C(=O)N[C@@H](CNC(=O)Oc2ccc3ccccc3c2)C(=O)N[C@@H](CC(C)C)C(=O)N2C[C@H](O)C[C@H]2C(=O)N[C@@H](Cc2c[nH]c3ccccc23)C(=O)N[C@@H](CCNC(=O)Oc2ccc3ccccc3c2)C(=O)N[C@@H](Cc2cn(CC(=O)O)c3ccccc23)C(=O)N1C` [Example 3037] ({CH2CO}-Y[NMeA]NP[Dap](X20)L[Hyp]W[Dab](X20)[Trp(1-CH2COOH)][NMeNle][NMeNle]LCG-NH2; thioether N-14) as the molecule, how does the IC50 read?
Answer: Its IC50 is 5 nM.

same assay, conditions: PD-L1-His 10 nM pre-incubated with inhibitor, PD-1-Ig 20 nM; read-out: HTRF IC50

Question: For `CCCC[C@H]1C(=O)N(C)[C@@H](CCCC)C(=O)N[C@@H](CC(C)C)C(=O)N[C@H](C(=O)NCC(N)=O)CSCC(=O)N[C@@H](Cc2ccc(O)cc2)C(=O)N(C)[C@@H](C)C(=O)N[C@@H](CC(N)=O)C(=O)N2CCC[C@H]2C(=O)N[C@@H](CNC(=S)Nc2c(Cl)c(Cl)cc(Cl)c2Cl)C(=O)N[C@@H](CC(C)C)C(=O)N2C[C@H](O)C[C@H]2C(=O)N[C@@H](Cc2c[nH]c3ccccc23)C(=O)N[C@@H](CCNC(=S)Nc2c(Cl)c(Cl)cc(Cl)c2Cl)C(=O)N[C@@H](Cc2cn(CC(=O)O)c3ccccc23)C(=O)N1C` [Example 1134] ({CH2CO}-Y[NMeA]NP[Dap](X67)L[Hyp]W[Dab](X67)[Trp(1-CH2COOH)][NMeNle][NMeNle]LCG-NH2; thioether N-14), which IC50 is on record?
Answer: Its IC50 is 2.4 nM.

Question: For `CCCC[C@H]1C(=O)N(C)[C@@H](CCCC)C(=O)N[C@@H](CC(C)C)C(=O)N[C@H](C(=O)NCC(N)=O)CSCC(=O)N[C@@H](Cc2ccc(O)cc2)C(=O)N(C)[C@@H](C)C(=O)N[C@@H](CC(N)=O)C(=O)N2CCC[C@H]2C(=O)N[C@@H](CN/C(=N/c2ccccc2)c2ccccc2)C(=O)N[C@@H](CC(C)C)C(=O)N2C[C@H](O)C[C@H]2C(=O)N[C@@H](Cc2c[nH]c3ccccc23)C(=O)N[C@@H](CCN)C(=O)N[C@@H](Cc2cn(CC(=O)O)c3ccccc23)C(=O)N1C` [Example 1018] ({CH2CO}-Y[NMeA]NP[X57]L[Hyp]W[Dab][Trp(1-CH2COOH)][NMeNle][NMeNle]LCG-NH2; thioether N-14), which IC50 is on record?
Answer: Its IC50 is 9.98 nM.

Question: How did the IC50 turn out when `CCCC[C@H]1C(=O)N(C)[C@@H](CCCC)C(=O)N[C@@H](CC(C)C)C(=O)N[C@H](C(=O)NCC(N)=O)CSCC(=O)N[C@@H](Cc2ccc(O)cc2)C(=O)N(C)[C@@H](C)C(=O)N[C@@H](CC(N)=O)C(=O)N2CCC[C@H]2C(=O)N[C@@H](CNC(=S)Nc2ccc([N+](=O)[O-])cc2)C(=O)N[C@@H](CC(C)C)C(=O)N2C[C@H](O)C[C@H]2C(=O)N[C@@H](Cc2c[nH]c3ccccc23)C(=O)N[C@@H](CCN)C(=O)N[C@@H](Cc2cn(CC(=O)O)c3ccccc23)C(=O)N1C` [Example 1024] ({CH2CO}-Y[NMeA]NP[Dap](X13)L[Hyp]W[Dab][Trp(1-CH2COOH)][NMeNle][NMeNle]LCG-NH2; thioether N-14) was run?
Answer: The IC50 was 3.2 nM.

Question: How did the IC50 turn out when `CCCC[C@H]1C(=O)N(C)[C@@H](CCCC)C(=O)N[C@@H](CC(C)C)C(=O)N[C@H](C(=O)NCC(N)=O)CSCC(=O)N[C@@H](Cc2ccc(O)cc2)C(=O)N(C)[C@@H](C)C(=O)N[C@@H](CC(N)=O)C(=O)N2CCC[C@H]2C(=O)N[C@@H](CNC(=O)Nc2ccccc2C(=N)Nc2ccccc2C#N)C(=O)N[C@@H](CC(C)C)C(=O)N2C[C@H](O)C[C@H]2C(=O)N[C@@H](Cc2c[nH]c3ccccc23)C(=O)N[C@@H](CCNC(=S)Nc2cc(OC)cc(OC)c2)C(=O)N[C@@H](Cc2cn(CC(=O)O)c3ccccc23)C(=O)N1C` [Example 1088] ({CH2CO}-Y[NMeA]NP[Dap]([CO-X49])L[Hyp]W[Dab](X55)[Trp(1-CH2COOH)][NMeNle][NMeNle]LCG-NH2; thioether N-14) was run?
Answer: The IC50 was 2.9 nM.

Question: With `CCCC[C@H]1C(=O)N(C)[C@@H](CCCC)C(=O)N[C@@H](CC(C)C)C(=O)N[C@H](C(=O)NCC(N)=O)CSCC(=O)N[C@@H](Cc2ccc(O)cc2)C(=O)N(C)[C@@H](C)C(=O)N[C@@H](CC(N)=O)C(=O)N2CCC[C@H]2C(=O)N[C@@H](CNC(=O)Nc2ccc(Oc3ccccc3)cc2)C(=O)N[C@@H](CC(C)C)C(=O)N2C[C@H](O)C[C@H]2C(=O)N[C@@H](Cc2c[nH]c3ccccc23)C(=O)N[C@@H](CCN)C(=O)N[C@@H](Cc2cn(CC(=O)O)c3ccccc23)C(=O)N1C` [Example 1070] ({CH2CO}-Y[NMeA]NP[Dap]([CO-X29])L[Hyp]W[Dab][Trp(1-CH2COOH)][NMeNle][NMeNle]LCG-NH2; thioether N-14) as the molecule, how does the IC50 read?
Answer: The IC50 was 5.5 nM.

Question: How did the IC50 turn out when `CCCC[C@H]1C(=O)N(C)[C@@H](CCCC)C(=O)N[C@@H](CC(C)C)C(=O)N[C@H](C(=O)NCC(N)=O)CSCC(=O)N[C@@H](Cc2ccc(O)cc2)C(=O)N(C)[C@@H](C)C(=O)N[C@@H](CC(N)=O)C(=O)N2CCC[C@H]2C(=O)N[C@@H](CNC(=S)Nc2ccc3nccnc3c2Br)C(=O)N[C@@H](CC(C)C)C(=O)N2C[C@H](O)C[C@H]2C(=O)N[C@@H](Cc2c[nH]c3ccccc23)C(=O)N[C@@H](CCN)C(=O)N[C@@H](Cc2cn(CC(=O)O)c3ccccc23)C(=O)N1C` [Example 3047] ({CH2CO}-Y[NMeA]NP[Dap](X42)L[Hyp]W[Dab][Trp(1-CH2COOH)][NMeNle][NMeNle]LCG-NH2; thioether N-14) was run?
Answer: Its IC50 is 5.8 nM.

Question: For `CCCC[C@H]1C(=O)N(C)[C@@H](CCCC)C(=O)N[C@@H](CC(C)C)C(=O)N[C@H](C(=O)NCC(N)=O)CSCC(=O)N[C@@H](Cc2ccc(O)cc2)C(=O)N(C)[C@@H](C)C(=O)N[C@@H](CC(N)=O)C(=O)N2CCC[C@H]2C(=O)N[C@@H](CNC(=S)Nc2ccc3nsnc3c2)C(=O)N[C@@H](CC(C)C)C(=O)N2C[C@H](O)C[C@H]2C(=O)N[C@@H](Cc2c[nH]c3ccccc23)C(=O)N[C@@H](CCNC(=S)Nc2ccc3nsnc3c2)C(=O)N[C@@H](Cc2cn(CC(=O)OC)c3ccccc23)C(=O)N1C` [Example 3056] ({CH2CO}-Y[NMeA]NP[Dap](X59)L[Hyp]W[Dab](X59)[Trp(1-CH2CO2Me)][NMeNle][NMeNle]LCG-NH2; thioether N-14), which IC50 is on record?
Answer: The IC50 was 5.6 nM.

Question: `CCCC[C@H]1C(=O)N(C)[C@@H](CCCC)C(=O)N[C@@H](CC(C)C)C(=O)N[C@H](C(=O)NCC(N)=O)CSCC(=O)N[C@@H](Cc2ccc(O)cc2)C(=O)N(C)[C@@H](C)C(=O)N[C@@H](CC(N)=O)C(=O)N2CCC[C@H]2C(=O)N[C@@H](CNC(=S)Nc2ccccc2)C(=O)N[C@@H](CC(C)C)C(=O)N2C[C@H](O)C[C@H]2C(=O)N[C@@H](Cc2c[nH]c3ccccc23)C(=O)N[C@@H](CCNC(=S)Nc2ccccc2)C(=O)N[C@@H](Cc2cn(CC(=O)O)c3ccccc23)C(=O)N1C` [Example 1001] ({CH2CO}-Y[NMeA]NP[Dap](X26)L[Hyp]W[Dab](X26)[Trp(1-CH2COOH)][NMeNle][NMeNle]LCG-NH2; thioether N-14) was tested. Which IC50 did it give?
Answer: Its IC50 is 1.9 nM.

Question: Which IC50 does the source give for `CCCC[C@H]1C(=O)N(C)[C@@H](CCCC)C(=O)N[C@@H](CC(C)C)C(=O)N[C@H](C(=O)NCC(N)=O)CSCC(=O)N[C@@H](Cc2ccc(O)cc2)C(=O)N(C)[C@@H](C)C(=O)N[C@@H](CC(N)=O)C(=O)N2CCC[C@H]2C(=O)N[C@@H](CNC(=S)Nc2ccc3nsnc3c2)C(=O)N[C@@H](CC(C)C)C(=O)N2C[C@H](O)C[C@H]2C(=O)N[C@@H](Cc2c[nH]c3ccccc23)C(=O)N[C@@H](CCNC(=S)Nc2ccc3nsnc3c2)C(=O)N[C@@H](Cc2cn(CC(=O)O)c3ccccc23)C(=O)N1C` [Example 3008] ({CH2CO}-Y[NMeA]NP[Dap](X59)L[Hyp]W[Dab](X59)[Trp(1-CH2COOH)][NMeNle][NMeNle]LCG-NH2; thioether N-14) here?
Answer: Its IC50 is 6.4 nM.

Question: With `CCCC[C@H]1C(=O)N(C)[C@@H](CCCC)C(=O)N[C@@H](CC(C)C)C(=O)N[C@H](C(=O)NCC(N)=O)CSCC(=O)N[C@@H](Cc2ccc(O)cc2)C(=O)N(C)[C@@H](C)C(=O)N[C@@H](CC(N)=O)C(=O)N2CCC[C@H]2C(=O)N[C@@H](CNC(=O)Nc2cc(Cl)ccc2C)C(=O)N[C@@H](CC(C)C)C(=O)N2C[C@H](O)C[C@H]2C(=O)N[C@@H](Cc2c[nH]c3ccccc23)C(=O)N[C@@H](CCNC(=O)Nc2cc(Cl)ccc2C)C(=O)N[C@@H](Cc2cn(CC(=O)O)c3ccccc23)C(=O)N1C` [Example 1118] ({CH2CO}-Y[NMeA]NP[Dap]([CO-X15])L[Hyp]W[Dab]([CO-X15])[Trp(1-CH2COOH)][NMeNle][NMeNle]LCG-NH2; thioether N-14) as the molecule, how does the IC50 read?
Answer: The IC50 was 4.3 nM.

Question: With `CCCC[C@H]1C(=O)N(C)[C@@H](CCCC)C(=O)N[C@@H](CC(C)C)C(=O)N[C@H](C(=O)NCC(N)=O)CSCC(=O)N[C@@H](Cc2ccc(O)cc2)C(=O)N(C)[C@@H](C)C(=O)N[C@@H](CC(N)=O)C(=O)N2CCC[C@H]2C(=O)N[C@@H](CNC(=O)c2cnccn2)C(=O)N[C@@H](CC(C)C)C(=O)N2C[C@H](O)C[C@H]2C(=O)N[C@@H](Cc2c[nH]c3ccccc23)C(=O)N[C@@H](CCNC(=O)c2cnccn2)C(=O)N[C@@H](Cc2cn(CC(=O)OC)c3ccccc23)C(=O)N1C` [Example 1002] ({CH2CO}-Y[NMeA]NP[Dap](Pyrazinecarbonyl)L[Hyp]W[Dab](Pyrazinecarbonyl)[Trp(1-CH2CO2Me)][NMeNle][NMeNle]LCG-NH2; thioether N-14) as the molecule, how does the IC50 read?
Answer: The IC50 was 3.5 nM.
